The text below walks through data of US20240417410A1, “TRICYCLIC COMPOUNDS FOR THE TREATMENT OF CANCER” (Hoffmann-La Roche Inc., priority 2023, published 2024).

SMILES strings stand for the structures. Where two headings read alike, the source gives them in different places.

One series relates to NCI-H2291. As to the kind of experiment: Cell proliferation, CTG 3D, 7 d. It is filed as cell-based. The settings on record: Homo sapiens. Here is the method: (§1) On Day-1, cells were plated in 384-well round-bottom ultra-low adhesion plates (cat. Corning 3830, with cell density adjusted according to Table 3. The assay plate was then centrifuged at 1000 rpm for 1 minute to ensure even distribution of cells. The plate was incubated at 37° C. in a 5% CO2 atmosphere (It is worth noting that for SW1271 cell plate, it needs to be incubated in an incubator without additional CO2).
(§2) On Day 0, Example 24 or A122 was added to each well using a Tecan HP D300E dispenser, with a 3-fold dilution across 9 doses. The final concentration of DMSO was normalized to 0.2%. The assay plate was then centrifuged at 1000 rpm for 1 minute and incubated for 7 days.
(§3) On Day 7, CellTiter-Glo (CTG) 3D reagent (Promega G9683) was dispensed into each well of a 384-well plate using a multi-drop dispenser (Thermo Scientific 66413). A liquid handling automation workstation (Bravo with a 384-well head) was used to mix the CTG reagents. Plates were left on a shaker for 30 minutes at 450 rpm, shielded from light.
(§4) For data analysis, the XL-fit software (Supplier: ID Business Solutions Ltd., Software version: XL fit 5.0) was utilized. The percentage of inhibition was calculated using the formula: Inhibition %=(Max-Sample value)/(Max-Min)×100. Curve fitting was performed as follows: For complete dose-response curves, the relative IC50 was reported from the fit. For incomplete curves, if minimal inhibition was greater than 50%, an IC50 less than the lowest compound concentration was reported. If minimal inhibition was between 20% and 50%, the bottom was locked at 0% and the IC50 was reported. If maximal inhibition was less than 50%, an IC50 greater than the highest compound concentration was reported.

The subject of another series is CHL1. As to the kind of experiment: Cell proliferation, CTG 3D, 7 d. It is filed as cell-based. To be noted: Homo sapiens, CHL-1; CHL1, KRAS (WT ampl). As for the experimental part:
as §1, §2, §3, §4

A further series relates to HEC-1-A. As to the kind of experiment: Cell proliferation, CTG 3D, 7 d. It is filed as cell-based. To be noted: Homo sapiens, KRAS (G12D). As for the experimental part:
as §1, §2, §3, §4

For a further series, the system named is SK-N-AS. In words: Cell proliferation, CTG 3D, 7 d. It is filed as cell-based. To be noted: Homo sapiens. Here is the method:
as §1, §2, §3, §4

Another series deals with LS513. In words: Cell proliferation, CTG 3D, 7 d. It is filed as cell-based. The settings on record: Homo sapiens, LS-513; LS513, KRAS (G12D). Here is the method:
as §1, §2, §3, §4

The next series concerns SW 948. As to the kind of experiment: Cell proliferation, CTG 3D, 7 d. The series is classed as cell-based. To be noted: Homo sapiens, SW948. Here is the method: as §1, §2, §3, §4
The test system of the next series is DLD-1. In words: Cell proliferation, CTG 3D, 7 d. The series is classed as cell-based. The settings on record: Homo sapiens. Here is the method:
as §1, §2, §3, §4

In another series the test system is NCI-H358. As to the kind of experiment: Cell proliferation, CTG 3D, 7 d. The settings on record: Homo sapiens; NCI-H358, KRAS (G12C). The series is classed as cell-based. Here is the method:
as §1, §2, §3, §4

The next series deals with SNU-668. As to the kind of experiment: Cell proliferation, CTG 3D, 7 d. To be noted: Homo sapiens, SNU668. The series is classed as cell-based. Here is the method: as §1, §2, §3, §4
Another series relates to MOLT-4. In words: Cell proliferation, CTG 3D, 7 d. The settings on record: Homo sapiens; MOLT-4, NRAS (p.G12C). The series is classed as cell-based. Here is the method: as §1, §2, §3, §4
Another series concerns GAK. In words: Cell proliferation, CTG 3D, 7 d. To be noted: Homo sapiens. The series is classed as cell-based. Here is the method: as §1, §2, §3, §4
The test system of the next series is NCI-H2135. In words: Cell proliferation, CTG 3D, 7 d. It is filed as cell-based. The settings on record: Homo sapiens. As for the experimental part: as §1, §2, §3, §4
Another series has as its system LCLC-97TM1. As to the kind of experiment: Cell proliferation, CTG 3D, 7 d. It is filed as cell-based. The settings on record: Homo sapiens; LCLC-97TM1, KRAS (G12V). Here is the method:
as §1, §2, §3, §4

Another series has as its system T84. In words: Cell proliferation, CTG 3D, 7 d. It is filed as cell-based. To be noted: Homo sapiens. As for the experimental part:
as §1, §2, §3, §4

In the next series the test system is SW1271. In words: Cell proliferation, CTG 3D, 7 d. The series is classed as cell-based. The settings on record: Homo sapiens. As for the experimental part: as §1, §2, §3, §4
The next series has as its system NCI-H1915. As to the kind of experiment: Cell proliferation, CTG 3D, 7 d. It is filed as cell-based. To be noted: Homo sapiens. Here is the method: as §1, §2, §3, §4
In a further series the target is hERG potassium channel (Homo sapiens (Human), UniProt Q12809). As to the kind of experiment: hERG potassium channel assay (manual patch clamp, CHO cells). The settings on record: for IC50 / IC20: 34° C., manual patch, CHO cells; for IC20: human, CHO cells stably transfected with hERG channel. It is filed as cell-based. As for the experimental part:
The purpose of the test was to screen compounds for the activity on hERG channels as a non-clinical cardiac safety evaluation.
Advanced hERG experiments were performed at near-physiological temperature (34° C.) by HEKA EPC10 manual patch system (heka elektronik, EPC10 amplifier). The CHO cells (B′SYS GmbH) stably transfected hERG channel were initially held at −80 mV, depolarized to voltages between −40 mV (100 ms) to 20 mV (500 ms) to activate the hERG outward currents, and then repolarized to −40 mV (500 ms) to record the hERG tail currents, with an interpulse interval of 15s. The recording environment included: Extracellular solution (in mM): 150 NaCl, 4 KCl, 1.2 CaCl2), 1 MgCl2 and 10 HEPES; pH adjusted to 7.2-7.4 with 5 M NaOH; Intracellular solution (in mM): 125 KCl, 10 NaCl, 5 EGTA, 10 HEPES, 0.1 Na2GTP and 5 MgATP; pH adjusted to 7.2 with 1 M KOH. Current inhibitions in the presence of more than 4 concentrations in quadruplicate were used to fit hERG IC50 by Graphpad prism V8.0.

For another series, the system named is human hepatocytes. As to the kind of experiment: Human hepatocyte stability assay. The series is classed as in vitro ADME. To be noted: 1 μM compound, human hepatocytes 1×10^6 cells/mL. Here is the method:
The hepatocyte stability assay measures the rate of disappearance of a compound from incubations with cryopreserved suspension hepatocytes from human. Positive controls, including Midazolam, Raloxifene and Dextromethorphan, are included in every experiment. Incubations consist of 1 μM tested compound and suspension of human hepatocytes (1×10^6 cells/mL) in supplemented Williams' E Medium with 10% FBS and 0.5% Penicillin-streptomycin. The hepatocyte suspension was incubated with intermittent shaking 900 rpm at 37° C., in a 5% CO2 incubator. The reaction was stopped by adding methanol containing internal standard (2 μM Tolbutamide) at 2, 10, 20, 40, 60 and 120 minutes after compound addition, depletion of the parent compound was monitored by LC-MS/MS analysis.

hERG potassium channel, sequence (Q12809 whole entry): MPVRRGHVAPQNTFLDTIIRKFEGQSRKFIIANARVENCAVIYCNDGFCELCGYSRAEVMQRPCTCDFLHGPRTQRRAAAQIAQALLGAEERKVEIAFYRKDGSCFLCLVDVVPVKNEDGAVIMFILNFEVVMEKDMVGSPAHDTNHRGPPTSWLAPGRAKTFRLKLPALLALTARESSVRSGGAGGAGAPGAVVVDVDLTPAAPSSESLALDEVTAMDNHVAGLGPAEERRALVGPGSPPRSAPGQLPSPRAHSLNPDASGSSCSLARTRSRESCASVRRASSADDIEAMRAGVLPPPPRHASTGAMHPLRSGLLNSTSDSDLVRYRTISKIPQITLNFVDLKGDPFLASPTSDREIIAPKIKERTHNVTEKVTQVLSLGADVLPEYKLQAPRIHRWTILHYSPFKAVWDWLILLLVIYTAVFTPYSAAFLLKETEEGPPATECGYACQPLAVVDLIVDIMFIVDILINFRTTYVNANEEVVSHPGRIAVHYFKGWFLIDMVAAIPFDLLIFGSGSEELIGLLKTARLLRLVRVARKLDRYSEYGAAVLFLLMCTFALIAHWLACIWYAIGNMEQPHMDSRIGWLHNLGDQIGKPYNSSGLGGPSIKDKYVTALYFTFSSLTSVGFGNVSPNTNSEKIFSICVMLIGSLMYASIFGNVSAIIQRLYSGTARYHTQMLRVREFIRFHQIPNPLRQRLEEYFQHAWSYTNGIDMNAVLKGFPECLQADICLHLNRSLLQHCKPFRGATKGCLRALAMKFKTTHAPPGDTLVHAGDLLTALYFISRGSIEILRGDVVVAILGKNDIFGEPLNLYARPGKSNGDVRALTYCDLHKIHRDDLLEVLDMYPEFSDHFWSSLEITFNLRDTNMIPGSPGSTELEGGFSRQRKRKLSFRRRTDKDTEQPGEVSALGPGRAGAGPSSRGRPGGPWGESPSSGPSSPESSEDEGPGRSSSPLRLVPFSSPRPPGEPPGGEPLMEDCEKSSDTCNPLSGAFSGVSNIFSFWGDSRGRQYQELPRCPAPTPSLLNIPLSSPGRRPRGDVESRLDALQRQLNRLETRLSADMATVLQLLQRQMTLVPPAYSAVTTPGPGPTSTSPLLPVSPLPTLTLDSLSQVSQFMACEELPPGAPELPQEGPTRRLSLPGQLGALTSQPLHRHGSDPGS

By IC50 is commonly meant the concentration that inhibits the measured activity by half. Broadly, the IC20 is the point of the concentration-response curve where the effect stands at 20%. A high value points to weaker potency. Turning to `CCn1c(-c2cc(N3CCN(C)CC3)cnc2[C@H](C)OC)c2c3cc(ccc31)-c1csc(n1)C[C@H](NC(=O)[C@H]1C[C@@H]1C)C(=O)N1CCC[C@H](N1)C(=O)OCC(C)(C)O2` [Example A122, reference compound], the IC50 stood at 1 nM with NCI-H2291 (NCI-H2291); 9.3 nM in the series with CHL1; 1.9 nM in the series with HEC-1-A; 1.9 nM with SK-N-AS; 0.47 nM in the series on LS513; 8.5 nM in the series on SW 948. In addition, the IC50 in the series on DLD-1 (DLD-1) turned out to be 20 nM; with NCI-H358 it was 0.27 nM; in the series with SNU-668, 4.3 nM; with MOLT-4, 1000 nM; in the series with GAK it was 19 nM; in the series on NCI-H2135, 1.2 nM. The IC50 in the series with LCLC-97TM1 was 0.17 nM; in the series with T84 (T84), 100 nM; in the series with SW1271 (SW1271) it was 3 nM; in the series with NCI-H1915 (NCI-H1915), 10 nM; against hERG potassium channel, 16900 nM. The compound further registered an IC20 against hERG potassium channel of 4600 nM. In the series on human hepatocytes, the “Hepatic clearance (Human)” value is reported as 9 mL/min/kg.

Turning to `CO[C@@H](C)c1ncc(N2CCN(C)CC2)cc1-c1c2c3cc(cc4c3n1CCC4)-c1csc(n1)C[C@H](NC(=O)[C@H]1[C@H](C)[C@@H]1C)C(=O)N1CCC[C@H](N1)C(=O)OCC(C)(C)C2` (atropisomer, axis not shown; (M)) [Example 24, (1r,2R,3S)-N-[(7S,13S)-(20M)-20-[2-[(1S)-1-methoxyethyl]-5-(4-methylpiperazin-1-yl)-3-pyridyl]-17,17-dimethyl-8,14-dioxo-15-oxa-4-thia-9,21,30,31-tetrazahexacyclo[23.3.1.1^2,5.1^9,13.0^19,27.0^21,26]hentriaconta-1 (28),2,5 (31), 19,25 (29),26-hexaen-7-yl]-2,3-dimethyl-cyclopropanecarboxamide], the IC50 in the series on NCI-H2291 (NCI-H2291, KRAS (G12F), read-out: IC50) is 0.55 nM; in the series on CHL1 it was 8.1 nM; in the series on HEC-1-A, 1.6 nM; with SK-N-AS (NRAS (p.Q61K), read-out: IC50), 0.47 nM; with LS513 it was 0.68 nM; in the series on SW 948 (SW 948, KRAS (Q61L), read-out: IC50), 2.9 nM. Moreover, the IC50 stood at 18 nM with DLD-1 (DLD-1, KRAS (G13D), read-out: IC50); 0.12 nM with NCI-H358; 2 nM in the series on SNU-668 (SNU-668, KRAS (Q61K), read-out: IC50); 1000 nM in the series with MOLT-4; 10 nM with GAK (GAK, NRAS (p.Q61L), read-out: IC50); 0.71 nM in the series on NCI-H2135 (NCI-H2135, NRAS (p.Q61K), read-out: IC50). The half-maximal inhibitory concentration (IC50) was found to be 0.092 nM in the series with LCLC-97TM1; 100 nM with T84 (T84, KRAS (G13D), read-out: IC50); 1.7 nM in the series on SW1271 (SW1271, NRAS (p.Q61R), read-out: IC50); 3.6 nM with NCI-H1915 (NCI-H1915, HRAS (p.Q61L), read-out: IC50); 63700 nM on hERG potassium channel. Further, at hERG potassium channel, the “fold higher hERG IC20 compared to A122” value is listed as 3 fold. Moreover, on hERG potassium channel, the “fold higher hERG IC20 compared to A252” value turned out to be 4 fold. In addition, the IC20 at hERG potassium channel worked out at 13800 nM. Moreover, the “Hepatic clearance (Human)” value with human hepatocytes is recorded as 3.4 mL/min/kg.
